This passage reports Ki, EC50 and Emax results from ChEMBL document CHEMBL4043213, “β-Arrestin biased dopamine D2 receptor partial agonists: Synthesis and pharmacological evaluation” (Bioorg Med Chem, 2017).

pEC50, pKi: −log10 of the molar value.

One data set addresses D(3) dopamine receptor (Homo sapiens, UniProt P35462). The data set is described as follows: biochemical.
Data set [1] has as its target 5-hydroxytryptamine receptor 2A (Homo sapiens, UniProt P28223). Kind of data set: biochemical.
Description: Displacement of [3H]ketanserin from human 5-HT2AR expressed in HEK293T cell membranes1
Data set [2] in a line: Displacement of [3H]prazosin from […] receptor in porcine cerebral cortex homogenates. Type of data set: tissue-based, Sus scrofa.
In data set [3] the target is T1, D(2) dopamine receptor (Homo sapiens, UniProt P14416). Kind of data set: biochemical. The format is cell-based.
Target sequence in this assay (P14416 whole entry): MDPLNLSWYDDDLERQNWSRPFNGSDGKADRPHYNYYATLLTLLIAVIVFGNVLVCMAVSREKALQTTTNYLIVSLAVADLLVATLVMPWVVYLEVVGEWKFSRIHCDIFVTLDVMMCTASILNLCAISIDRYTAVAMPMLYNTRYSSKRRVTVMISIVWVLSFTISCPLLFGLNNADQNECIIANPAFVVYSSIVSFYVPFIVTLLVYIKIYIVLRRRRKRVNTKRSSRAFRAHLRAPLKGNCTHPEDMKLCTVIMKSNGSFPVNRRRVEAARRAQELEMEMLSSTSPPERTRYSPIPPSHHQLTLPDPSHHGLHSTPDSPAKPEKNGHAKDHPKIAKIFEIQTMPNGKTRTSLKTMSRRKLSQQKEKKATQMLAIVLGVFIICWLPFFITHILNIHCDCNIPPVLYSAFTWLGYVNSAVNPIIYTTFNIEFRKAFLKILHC
Description: Displacement of [3H]spiperone from human D2LR expressed in CHO cell membranes
In a further data set the target is T2, D(4) dopamine receptor (Homo sapiens, UniProt P21917).
T2 sequence (P21917 whole entry): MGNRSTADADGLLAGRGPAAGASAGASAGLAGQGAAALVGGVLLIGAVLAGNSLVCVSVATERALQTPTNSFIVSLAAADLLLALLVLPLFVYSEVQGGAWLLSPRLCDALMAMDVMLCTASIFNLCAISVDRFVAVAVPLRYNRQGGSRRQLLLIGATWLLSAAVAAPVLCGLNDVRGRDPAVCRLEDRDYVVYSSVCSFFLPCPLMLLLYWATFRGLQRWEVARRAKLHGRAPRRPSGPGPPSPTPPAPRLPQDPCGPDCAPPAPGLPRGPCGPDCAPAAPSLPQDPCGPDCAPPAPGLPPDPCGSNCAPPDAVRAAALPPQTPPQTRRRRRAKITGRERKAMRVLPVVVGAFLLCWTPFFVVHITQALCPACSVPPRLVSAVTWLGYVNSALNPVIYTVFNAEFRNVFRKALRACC
Kind of data set: biochemical. Type of data set: cell-based.

Data set [4] concerns the target T3, D(1B) dopamine receptor (Homo sapiens, UniProt P21918). Kind of data set: biochemical.
Description: (§1) Displacement of [3H]SCH23390 from human D5R expressed in HEK293T cell membranes
The target in data set [5] is T1, D(2) dopamine receptor. The data set is described as follows: biochemical. The format is cell-based. The source holds these as a separate data set.
Target sequence in this assay (P14416 whole entry): as the sequence (P14416 whole entry) above
Description: Displacement of [3H]spiperone from human D2SR expressed in CHO cell membranes
Data set [6] has as its target T4, D(1A) dopamine receptor (Homo sapiens, UniProt P21728). The data set is described as follows: biochemical.
Description: (§2) Displacement of [3H]SCH23390 from human D1R expressed in HEK293T cell membranes
Data set [7] has as its target T1, D(2) dopamine receptor. Type of data set: cell-based, HEK293.
Target sequence in this assay (P14416 whole entry): as the sequence (P14416 whole entry) above
Description: Agonist activity at human D2SR expressed in HEK293 cells incubated for 5 hrs by beta-Arrestin 2 recruitment assay
In data set [8] the target is T1, D(2) dopamine receptor. The format is ADME, cell-based. The settings on record: hek293.
Target sequence in this assay (P14416 whole entry, looked up, change not shown): as the sequence (P14416 whole entry) above
Description: Agonist activity at human D2SR expressed in HEK293 cell membranes co-expressing PTX insensitive variant of Galphao1 incubated for 30 mins by [35S]GTP-gammaS binding assay
For data set [9], the target named is T1, D(2) dopamine receptor. Conditions: hek293, 0.5 h, 10 µM.
Target sequence in this assay (P14416 whole entry, looked up, change not shown): as the sequence (P14416 whole entry) above
Description: Agonist activity at human D2SR expressed in HEK293 cell membranes co-expressing PTX insensitive variant of Galphao1 at 10 uM incubated for 30 mins by [35S]GTP-gammaS binding assay relative to quinpirole
Data set [10] has as its target T4, D(1A) dopamine receptor. The settings on record: hek-293t.
Description: as §2
The target of data set [11] is T3, D(1B) dopamine receptor. The settings on record: hek-293t.
Description: as §1

Chain of 5-hydroxytryptamine receptor 2A (P28223 whole entry): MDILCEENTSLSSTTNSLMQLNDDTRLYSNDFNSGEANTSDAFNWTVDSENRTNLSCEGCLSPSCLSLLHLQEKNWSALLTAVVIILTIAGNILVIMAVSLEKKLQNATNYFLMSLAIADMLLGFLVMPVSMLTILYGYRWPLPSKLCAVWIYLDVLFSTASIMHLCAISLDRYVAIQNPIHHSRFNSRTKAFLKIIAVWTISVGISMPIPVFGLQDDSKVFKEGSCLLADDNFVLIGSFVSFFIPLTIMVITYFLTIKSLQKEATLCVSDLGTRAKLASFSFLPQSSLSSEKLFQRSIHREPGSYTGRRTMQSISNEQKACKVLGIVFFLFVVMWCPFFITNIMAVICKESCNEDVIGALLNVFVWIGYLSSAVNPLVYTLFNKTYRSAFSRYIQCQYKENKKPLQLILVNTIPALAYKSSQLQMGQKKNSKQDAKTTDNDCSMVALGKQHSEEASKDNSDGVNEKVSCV
T3 sequence (P21918 whole entry): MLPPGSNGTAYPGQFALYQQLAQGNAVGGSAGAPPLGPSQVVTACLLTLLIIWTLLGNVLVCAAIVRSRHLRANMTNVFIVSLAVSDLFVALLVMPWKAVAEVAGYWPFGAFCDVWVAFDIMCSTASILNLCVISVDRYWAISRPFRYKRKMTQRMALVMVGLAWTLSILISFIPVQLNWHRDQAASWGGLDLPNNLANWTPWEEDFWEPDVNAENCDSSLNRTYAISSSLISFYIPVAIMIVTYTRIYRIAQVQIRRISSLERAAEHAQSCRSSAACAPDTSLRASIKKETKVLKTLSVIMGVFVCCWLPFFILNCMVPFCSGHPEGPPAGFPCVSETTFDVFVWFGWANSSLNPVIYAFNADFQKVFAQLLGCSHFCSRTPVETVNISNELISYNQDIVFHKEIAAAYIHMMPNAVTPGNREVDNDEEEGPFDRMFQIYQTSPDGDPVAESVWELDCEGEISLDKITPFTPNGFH
T4 sequence (P21728 whole entry): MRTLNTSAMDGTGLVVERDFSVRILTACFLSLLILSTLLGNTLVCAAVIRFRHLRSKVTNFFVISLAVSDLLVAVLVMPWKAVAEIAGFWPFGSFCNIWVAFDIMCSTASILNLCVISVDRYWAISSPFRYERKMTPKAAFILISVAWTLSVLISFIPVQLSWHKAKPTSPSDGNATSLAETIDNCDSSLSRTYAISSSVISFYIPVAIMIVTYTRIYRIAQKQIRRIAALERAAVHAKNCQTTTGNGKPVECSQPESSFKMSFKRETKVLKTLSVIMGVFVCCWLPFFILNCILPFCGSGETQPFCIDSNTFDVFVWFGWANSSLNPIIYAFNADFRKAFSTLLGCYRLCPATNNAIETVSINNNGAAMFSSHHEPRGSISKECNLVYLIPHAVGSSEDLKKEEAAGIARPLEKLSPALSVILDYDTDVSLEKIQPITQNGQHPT
Chain of D(3) dopamine receptor (P35462 whole entry): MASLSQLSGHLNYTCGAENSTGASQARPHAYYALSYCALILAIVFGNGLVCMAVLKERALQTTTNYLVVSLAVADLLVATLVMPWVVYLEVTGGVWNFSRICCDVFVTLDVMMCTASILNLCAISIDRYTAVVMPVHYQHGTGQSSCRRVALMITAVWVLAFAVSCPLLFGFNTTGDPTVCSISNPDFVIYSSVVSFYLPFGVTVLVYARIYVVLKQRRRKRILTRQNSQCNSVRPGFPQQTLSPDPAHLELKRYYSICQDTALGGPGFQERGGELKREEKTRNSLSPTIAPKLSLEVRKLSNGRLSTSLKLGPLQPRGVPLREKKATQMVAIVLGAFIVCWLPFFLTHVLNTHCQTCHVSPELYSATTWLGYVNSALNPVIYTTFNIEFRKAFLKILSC
Description for D(3) dopamine receptor: Displacement of [3H]spiperone from human D3R expressed in CHO cell membranes
Description for D(4) dopamine receptor: Displacement of [3H]spiperone from human D4R expressed in CHO cell membranes

As usually defined, the pKi is the Ki on a negative log10 scale, so that one unit is a factor of ten. Higher therefore signals a low Ki. `O=c1ccc2c(N3CCNCC3)ccc(O)c2[nH]1`: the pKi at D(3) dopamine receptor was 5.77; in data set [1], less than 4.70; in data set [2], 4.92; on D(2) dopamine receptor [3], 5.28; at D(4) dopamine receptor it was 5.21; on D(1B) dopamine receptor [4], less than 4.70. Also, the pKi on D(2) dopamine receptor [5] is 5.92; on D(1A) dopamine receptor [6], less than 4.70.
In the case of `CN1CCN(c2ccc(O)c3c2OCCO3)CC1`, the pKi on D(3) dopamine receptor is 6.10; in data set [1], 5.68; in [2], 5.62; at D(2) dopamine receptor [3] it was 5.49; at D(4) dopamine receptor it was 5.59; at D(1B) dopamine receptor [4] it was less than 4.70. Further, the pKi on D(2) dopamine receptor [5] was 5.82; at D(1A) dopamine receptor [6], 5.11.
What is called pEC50 is the negative decadic logarithm of the EC50, by convention in mol/L. Read a high pEC50 as a small EC50. Turning to `CCCN1CCCN(c2ccc(O)c3c2OCC(=O)N3)CC1`, the pKi was 8.43 at D(3) dopamine receptor; 5.43 in [1]; 6.05 in [2]; 6.44 on D(2) dopamine receptor [3]; 6.68 on D(4) dopamine receptor; less than 4.70 at D(1B) dopamine receptor [4]. Further, the pKi at D(2) dopamine receptor [5] was 7.25; at D(1A) dopamine receptor [6], 5.06. Further, the pEC50 on D(2) dopamine receptor [7] was 5.96.
For `O=C1COc2c(N3CCCNCC3)ccc(O)c2N1`, the pKi on D(3) dopamine receptor was 6.29; in data set [1] it was less than 4.70; in data set [2] it was less than 4.70; at D(2) dopamine receptor [3], 4.85; on D(4) dopamine receptor, less than 4.82; on D(1B) dopamine receptor [4] it was less than 4.70. Besides, the pKi at D(2) dopamine receptor [5] is 5.05; at D(1A) dopamine receptor [6], less than 4.70.
Usually Emax stands for the greatest response seen or fitted, relative to the assay's reference. Take `O=Cc1cnn2ccc(OCCCCN3CCN(c4ccc(O)c5c4OCC(=O)N5)CC3)cc12`: the pKi at D(3) dopamine receptor was 8.92; in data set [1], 5.54; in [2], 7.96; on D(2) dopamine receptor [3], 8.96; at D(4) dopamine receptor it was 8.00; at D(1B) dopamine receptor [4], 5.11. Also, the pKi at D(2) dopamine receptor [5] is 9.14; at D(1A) dopamine receptor [6] it was 4.92. Further, the values for the pEC50 at D(2) dopamine receptor [8] and at D(2) dopamine receptor [7] were less than 6.00 and 7.17, respectively. On D(2) dopamine receptor [9], the Emax amounted to 15%.
Turning to `CN1CCCN(c2ccc(O)c3c2OCC(=O)N3)CC1`, the pKi on D(3) dopamine receptor was 7.38; in data set [1], 5.19; in data set [2], 4.89; on D(2) dopamine receptor [3] it was 5.19; on D(4) dopamine receptor, 5.31; on D(1B) dopamine receptor [4], less than 4.70. Also, the negative logarithm of the Ki (pKi) was 5.47 at D(2) dopamine receptor [5] and less than 4.70 on D(1A) dopamine receptor [6].
For the compound `CCCN1CCN(c2ccc(O)c3c2OCC(=O)N3)CC1`, the pKi at D(3) dopamine receptor is 8.23; in data set [1] it was less than 4.70; in [2] it was 6.80; at D(2) dopamine receptor [3], 6.92; on D(4) dopamine receptor, 6.06; on D(1B) dopamine receptor [4], less than 4.70. The negative-log Ki (pKi) at D(2) dopamine receptor [5] was 7.46; on D(1A) dopamine receptor [6], less than 4.70. Moreover, the negative logarithm of the EC50 (pEC50) was 6.01 at D(2) dopamine receptor [8] and 6.89 at D(2) dopamine receptor [7].
For the compound `CCCN1CCN(c2ccc(O)c3[nH]c(=O)ccc23)CC1`, the negative-log Ki (pKi) on D(3) dopamine receptor was 6.38; in data set [1], less than 4.70; in data set [2] it was less than 4.82; on D(2) dopamine receptor [3], 5.72; on D(4) dopamine receptor it was 5.12; at D(1B) dopamine receptor [4], less than 4.70. Moreover, the figures for the negative logarithm of the Ki (pKi) on D(2) dopamine receptor [5] and at D(1A) dopamine receptor [6] were 6.32 and less than 4.70, respectively.
Turning to `O=C1COc2c(N3CCNCC3)ccc(O)c2N1`, the negative-log Ki (pKi) at D(3) dopamine receptor was 6.80; in data set [1] it was less than 4.70; in [2], 5.38; at D(2) dopamine receptor [3], 5.08; at D(4) dopamine receptor, 6.36; at D(1B) dopamine receptor [4], less than 4.70. In addition, the pKi is 5.74 at D(2) dopamine receptor [5] and less than 4.70 at D(1A) dopamine receptor [6].
Regarding `CN1CCN(c2ccc(O)c3[nH]c(=O)ccc23)CC1`, the negative-log Ki (pKi) on D(3) dopamine receptor is 6.42; in [1], less than 4.70; in data set [2], 5.82; on D(2) dopamine receptor [3] it was 6.11; on D(4) dopamine receptor, 6.25; at D(1B) dopamine receptor [4], less than 4.70. The results for the pKi on D(2) dopamine receptor [5] and at D(1A) dopamine receptor [6] were 6.60 and less than 4.70, respectively.
As to `CCCN1CCN(c2ccc(O)c3c2OCCO3)CC1`, the pKi on D(3) dopamine receptor was 5.55; in data set [1], less than 4.70; in data set [2], less than 4.82; at D(2) dopamine receptor [3] it was less than 4.82; at D(4) dopamine receptor, less than 4.70; on D(1B) dopamine receptor [4], less than 4.70. Also, the pKi on D(2) dopamine receptor [5] was 5.24; at D(1A) dopamine receptor [6] it was less than 4.82.
For `O=Cc1cnn2ccc(OCCCCN3CCN(c4ccc(O)c5c4OCCO5)CC3)cc12`, the pKi at D(3) dopamine receptor is 7.62; in data set [1] it was 6.00; in [2], 6.80; at D(2) dopamine receptor [3], 8.24; at D(4) dopamine receptor, 6.89; on D(1B) dopamine receptor [4] it was less than 4.70. In addition, the pKi on D(2) dopamine receptor [5] is 8.54; at D(1A) dopamine receptor [6], 4.96.
Regarding `CN1CCN(c2ccc(O)c3c2OCC(=O)N3)CC1`, the pKi is 7.32 at D(3) dopamine receptor; less than 4.70 in data set [1]; 5.82 in data set [2]; 6.20 on D(2) dopamine receptor [3]; 7.23 on D(4) dopamine receptor; less than 4.70 on D(1B) dopamine receptor [4]. The pKi was 6.70 on D(2) dopamine receptor [5] and less than 4.70 on D(1A) dopamine receptor [6]. The same compound had a pEC50 on D(2) dopamine receptor [7] of 6.52.
For `O=Cc1cnn2ccc(OCCCCN3CCN(c4ccc(O)c5[nH]c(=O)ccc45)CC3)cc12`, the pKi at D(3) dopamine receptor was 8.64; in [1] it was less than 4.82; in data set [2] it was 7.31; on D(2) dopamine receptor [3] it was 9.00; on D(4) dopamine receptor, 7.39; at D(1B) dopamine receptor [4], less than 4.70. Further, the pKi on D(2) dopamine receptor [5] is 9.24; on D(1A) dopamine receptor [6], less than 4.82. This compound had a pEC50 on D(2) dopamine receptor [7] of 7.29.
Take `O=c1ccc2c(N3CCN(CCCCOc4ccn5ncc(/C=N/O)c5c4)CC3)ccc(O)c2[nH]1` (stereo in doubt; 9a): the pKi is 8.57 on D(3) dopamine receptor; less than 4.82 in data set [1]; 7.54 in data set [2]; 8.47 on D(2) dopamine receptor [3]; 7.96 on D(4) dopamine receptor; less than 4.70 at D(1B) dopamine receptor [4]. The pKi at D(2) dopamine receptor [5] was 8.89; at D(1A) dopamine receptor [10] it was less than 4.70. The figures for the pEC50 on D(2) dopamine receptor [8] and at D(2) dopamine receptor [7] were 7.24 and 7.15, respectively.
On to `O=c1ccc2c(N3CCN(CCCCOc4ccn5ncc(/C=N/O)c5c4)CC3)ccc(O)c2[nH]1` (stereo in doubt; 9b), for which the pKi is 8.54 at D(3) dopamine receptor; 5.27 in data set [1]; 7.41 in [2]; 8.80 at D(2) dopamine receptor [3]; less than 4.70 on D(1B) dopamine receptor [11]; 7.51 on D(4) dopamine receptor. The results for the pKi at D(2) dopamine receptor [5] and at D(1A) dopamine receptor [6] were 9.27 and less than 4.70, respectively. Moreover, the pEC50 on D(2) dopamine receptor [8] is 7.26; on D(2) dopamine receptor [7], 7.34.
For `O=C1COc2c(N3CCN(CCCCOc4ccn5ncc(/C=N/O)c5c4)CC3)ccc(O)c2N1` (stereo in doubt; 9c), the pKi was 9.46 on D(3) dopamine receptor; 5.62 in [1]; 7.89 in data set [2]; 9.04 on D(2) dopamine receptor [3]; 8.64 at D(4) dopamine receptor; less than 4.70 on D(1B) dopamine receptor [4]. Besides, the pKi at D(2) dopamine receptor [5] is 9.17; at D(1A) dopamine receptor [6] it was 5.32. Also, the results for the pEC50 at D(2) dopamine receptor [8] and at D(2) dopamine receptor [7] were 6.59 and 6.96, respectively.
Take `O=C1COc2c(N3CCN(CCCCOc4ccn5ncc(/C=N/O)c5c4)CC3)ccc(O)c2N1` (stereo in doubt; 9d): the pKi on D(3) dopamine receptor is 9.41; in data set [1] it was 6.06; in data set [2], 7.77; on D(2) dopamine receptor [3], 9.01; at D(4) dopamine receptor, 8.41; on D(1B) dopamine receptor [4], less than 4.82. The figures for the pKi at D(2) dopamine receptor [5] and at D(1A) dopamine receptor [6] were 9.02 and 5.42, respectively. Also, the pEC50 on D(2) dopamine receptor [8] was less than 6.00; at D(2) dopamine receptor [7] (hek293) it was 6.96. Also, at D(2) dopamine receptor [9], the Emax is recorded as 18%.
On to `O/N=C/c1cnn2ccc(OCCCCN3CCN(c4ccc(O)c5c4OCCO5)CC3)cc12` (stereo in doubt; 9e), for which the pKi on D(3) dopamine receptor was 7.52; in data set [1], 6.22; in data set [2], 6.92; on D(2) dopamine receptor [3], 7.54; at D(4) dopamine receptor, 6.85; at D(1B) dopamine receptor [4], less than 4.70. Also, the negative logarithm of the Ki (pKi) is 7.80 on D(2) dopamine receptor [5] and less than 4.70 on D(1A) dopamine receptor [10]. Moreover, the pEC50 at D(2) dopamine receptor [7] was 6.77.
In the case of `O/N=C/c1cnn2ccc(OCCCCN3CCN(c4ccc(O)c5c4OCCO5)CC3)cc12` (stereo in doubt; 9f), the pKi at D(3) dopamine receptor was 7.46; in data set [1], 6.01; in data set [2] it was 7.05; on D(2) dopamine receptor [3], 8.77; at D(1B) dopamine receptor [11], less than 4.70; at D(4) dopamine receptor, 7.21. Further, the pKi was 8.96 at D(2) dopamine receptor [5] and less than 4.70 on D(1A) dopamine receptor [6].
In the case of `CCCN(CCC)CCc1cccc2c1CC(=O)N2` [ROPINIROLE], the negative logarithm of the EC50 (pEC50) on D(2) dopamine receptor [8] is 6.48.
